Data: ChEMBL document CHEMBL1140858, “Ceramicines B-D, new antiplasmodial limonoids from Chisocheton ceramicus” (Bioorg Med Chem, 2009)
In brackets after ≈: the same amount, converted by molar mass.

Assays:
Plasmodium falciparum = assay: Antiplasmodial activity against Plasmodium falciparum 3D7 by Giemsa staining; assay type: functional, organism-based
P388 = assay: Cytotoxicity against mouse P388 cells by MTT assay; assay type: cell-based

| SMILES | IC50 (Plasmodium falciparum) | IC50 (P388) |
| --- | --- | --- |
| C[C@]12C3=CC[C@@H](c4ccoc4)[C@]3(C)CC[C@@H]1[C@@]1(C)C(=O)C=C[C@@]3(C)CO[C@@H]([C@H]2O)[C@H]13 [CERAMICINES B] | 0.23 µg/mL (≈ 0.563 µM) | 15 µg/mL (≈ 36.7 µM) |
| C=C(C)C(=O)O[C@H]1C[C@H]2[C@](C)(C3=CC[C@@H](c4ccoc4)[C@@]31C)[C@H](O)[C@@H]1OC[C@]3(C)C=CC(=O)[C@@]2(C)[C@@H]13 [CERAMICINES C] | 2.38 µg/mL (≈ 4.83 µM) | 5.5 µg/mL (≈ 11.2 µM) |
| C[C@]12C3=CC[C@@H](C4=CCOC4=O)[C@]3(C)CC[C@@H]1[C@@]1(C)C(=O)C=C[C@@]3(C)CO[C@@H]([C@H]2O)[C@H]13 [CERAMICINES D] | 2.15 µg/mL (≈ 5.06 µM) | 27 µg/mL (≈ 63.6 µM) |
| CC(=O)O[C@@H]1[C@H]2[C@@H](O)C=CC(=O)[C@]2(C)[C@H]2CC[C@]3(C)C(=CC[C@H]3c3ccoc3)[C@]2(C)[C@@H]1O [CERAMICINES A] | 44.2 µg/mL (≈ 100 µM) |  |
